Assay results taken from patent publication US20220267271A1, “WNT ACTIVATORS AND METHODS OF USE” (MAYO FOUNDATION FOR MEDICAL EDUCATION AND RESEARCH, priority 2019, published 2022).

Experiments:
Wnt/β-catenin signaling = experiment: Luciferase reporter assay (Super8XTOPFlash) for Wnt/β-catenin signaling in HEK293 cells; format: cell-based; conditions: 24 h; for Wnt reporter activity / activation of Wnt/β-catenin signaling: HEK293 cells; for EC50: Homo sapiens, Wnt3A plasmid-transfected HEK293 cells, 30-30,000 nM, mean and SD of 3-7 independent experiments
Procedure: (A) structures of niciosamide and CI-994; (B) HEK293 cells were transfected with Super8XTOPFlash and β galactosidase vectors along with Wnt3A or control vector. After 24 hours incubation, cells were treated with CI-994 at the indicated concentration for 24 hr. The luciferase activity was then measured and normalized to the activity of the β-galactosidase. (C) HT1080 cells stably transduced LRP6 with HA tag were treated with niciosamide and CI-994 at the indicated concentrations for 24 h. The levels of HA-LRP6 were examined by Western blot with anti-HA antibody. (D) Western blots showing the depletion of LRP6 after 2 days of transiently transfection of 50 nM LRP6 siRNA in HEK293 cells. ON-TARGETplus double-stranded siRNA oligomers against human LRP6 and non-specific scrambled siRNA control (Stealth RNAi™ siRNA Negative Control, Med GC) were purchased from Thermo Scientific. siRNA LRP6-1, siRNA LRP6-2 and control siRNA were Thermo Scientific catalog numbers J-003845-09, J-003845-11 and 12935300, respectively. (E) HEK293 cells were transfected with LRP6 siRNAs, and after 8 h incubation were further transfected with Super8XTOPFlash construct and β galactosidase-expressing vector. After 24 h incubation, the cells were treated with CI-994 (16 μM) for 24 h. The luciferase activity was then measured and normalized to β-galactosidase activity. All the values are the average of triplicate determinations with the SD values indicated by error bars. **P<0.01 versus corresponding control value.
HEK293 cells were transfected with SuperXTOPFlash and β-galactosidase vectors along with Wnt3A or control vector. After 24 h incubation, cells were treated with 1015 or 1039 at the indicated concentrations for 24 h. The luciferase activity was then measured and normalized to the activity of the β-galactosidase. All the values are the average of triplicate determinations with the SD values indicated by error bars. This experiment is representative of at least three such experiments performed with similar data.
Luciferase reporter assay for Wnt/β-catenin signaling: HEK293 cells were plated into 24-well plates. After overnight culture, the cells were transiently transfected with the Super8XTOPFlash luciferase construct and β-galactosidase-expressing vector along with or without Wnt3A plasmid. After 24 h incubation, cells were treated with each individual compound at the indicated concentrations for 24 h. Cells were then lysed and both luciferase and β-galactosidase activities were determined. The luciferase activity was normalized to the β-galactosidase activity.
HEK293 cells were plated into 24-well plates. After overnight culture, the cells were transiently transfected with the Super8XTOPFlash luciferase construct and β-galactosidase-expressing vector along with the Wnt3A plasmid. After 24 h incubation, the cells were treated with each individual compound at 30-30,000 nM in triplication for 24 h. The cells were then lysed, and luciferase and β-galactosidase activities were determined with the luciferase assay system (Promega, Cat. #E1501) and β-galactosidase assay system (Promega, Cat. #E2000), respectively. The luciferase activity was normalized to the s-galactosidase activity, and the EC50 values were calculated by use of GraphPad software, and shown in the below table. All the EC50 values (mean and SD) are from 3-7 independent experiments.

β-catenin = β-catenin level in N2a cells by Western blotting; format: cell-based; conditions: 24 h; for β-catenin level: concentration as low as 0.1 μM; for EC50: Mus musculus, 3-4 independent experiments, read-out: EC50 values (X±SD), β-catenin level
Procedure: (§1) (A,C) N2a cells were treated with CI-994 at the indicated concentration for 24 h, and the levels of β-catenin (A) and BACE1 (C) were examined by Western blotting. (B,D) The band intensity of β-catenin and BACE1 was quantified and normalized to the corresponding signal for actin. The results represented in the histograms are shown as the mean±SD and are the average of three independent experiments. *P<0.05, **P<0.01 versus corresponding control value.
N2a cells were treated with 1015, 1011, or 1020 at the indicated concentration for 24 h. (A) the levels of total cellular β-catenin were examined by Western blotting. (B) The intensity of the β-catenin bands were quantified and normalized to the corresponding signal for actin. The results represented in the histograms are shown as the mean±SD and are the average of 3-4 independent experiments, and the EC50 values were calculated with graphpad prism.
(§2) Western blotting: Cells in 6-well plates were lysed in 0.5 ml of lysis buffer (phosphate-buffered saline containing 1% Triton X-100, 1× Proteinase inhibitor cocktail Complete, and 1 mM PMSF) at 4° C. for 15 min. Equal quantities of protein were subjected to SDS-PAGE under reducing conditions. Following transfer to immobilon-P transfer membrane, successive incubations with a primary antibody, and a horseradish peroxidase-conjugated secondary antibody or IRDye® 680RD goat anti-rabbit/mouse secondary antibodies were carried out for 60-120 min at room temperature. The immunoreactive proteins were then detected using the ECL system or the Odyssey infrared imaging system (LI-COR). Films showing immunoreactive bands were scanned by Hp Scanjet 5590.

BACE1 = BACE1 expression in N2a cells by Western blotting; format: cell-based; conditions: 24 h
Procedure: as §1
N2a cells were treated with 1015 and 1020 at the indicated concentrations for 24 h. (A) the levels of BACE1 expression were examined by Western blotting. (B) The intensity of BACE1 bands were quantified and normalized to the corresponding signal for actin. The results represented in the histograms are shown as the mean±SD and are the average of 3-4 independent experiments. *P<0.05, **P<0.01 versus corresponding control value.
as §2

[1] = Metabolic stability in mouse liver microsomes; format: in vitro ADME; conditions: 2 μM, five time points over 40 min, NADPH
Procedure: Metabolic stability of several compounds (1009, 1011, 1015, 1020, and 1056) and 2 reference compounds (propranolol and imipramine) were determined in mouse liver microsomes at five time points over 40 min using HPLC-MS. Metabolic stability is defined as the percentage of parent compound lost over time in the presence of a metabolically active test system.
Metabolic stability in mouse liver microsomes: Mouse hepatic microsomes were isolated from pooled, perfused livers of Balb/c male mice according to the standard protocol. The batch of microsomes was tested for quality control using Imipramine, Propranolol and Verapamil as reference compounds. Microsomal incubations were carried out in 96-well plates in 5 aliquots of 40 μL each (one for each time point). Liver microsomal incubation medium contained PBS (100 mM, pH 7.4), MgCl2 (3.3 mM), NADPH (3 mM), glucose-6-phosphate (5.3 mM), glucose-6-phosphate dehydrogenase (0.67 units/ml) with 0.42 mg of liver microsomal protein per ml. Control incubations were performed replacing the NADPH-cofactor system with PBS. Test compound (2 μM, final solvent concentration 1.6%) was incubated with microsomes at 37° C., shaking at 100 rpm. Incubations were performed in duplicates. Five time points over 40 minutes had been analyzed. The reactions were stopped by adding 12 volumes of 90% acetonitrile-water to incubation aliquots, followed by protein sedimentation by centrifuging at 5500 rpm for 3 minutes. […]. Supernatants were analyzed using the HPLC system coupled with tandem mass spectrometer.
The elimination constant (kel), half-life (t1/2) and intrinsic clearance (Clint) were determined in plot of […] versus time, using linear regression analysis: […]

[2] = CI-994 at the indicated concentration

Question: With CC(=O)Nc1ccc(C(=O)Nc2ccccc2N)cc1 [CI-994, 4-(acetylamino)-N-(2-aminophenyl)benzamide, reference compound] as the compound, how does the “Wnt reporter activity / activation of Wnt/β-catenin signaling” value (Wnt/β-catenin signaling) read?
Answer: Its value is “increased”.

Question: And the β-catenin levels (β-catenin; [2])?
Answer: The β-catenin levels was “significantly increased”.

Question: And the BACE1 expression (BACE1; [2])?
Answer: Its BACE1 expression is “deceased”.

Question: For CC1CCCC(C)N1CCNC(=O)c1ccc(C(=O)Nc2ccccc2N)nc1 (stereo not drawn) [Compound 1011], which EC50 (Wnt/β-catenin signaling) is on record?
Answer: The EC50 was 920 ± 455 nM.

Question: What about the β-catenin level (β-catenin) of the same compound?
Answer: The β-catenin level was “significantly enhanced”.

Question: And the EC50 (β-catenin)?
Answer: The EC50 was 930 ± 10 nM.

Question: What about the “stability in mouse hepatic microsomal system” value [1] of the same compound?
Answer: Its value is “good stability”.

Question: With Nc1ccccc1NC(=O)c1ccc(C(=O)NCC2CCN2C2CCCC2)cn1 (stereo not drawn) [Compound 1015] as the compound, how does the “Wnt reporter activity / activation of Wnt/β-catenin signaling” value (Wnt/β-catenin signaling) read?
Answer: The value was “activate”.

Question: What about the EC50 (Wnt/β-catenin signaling) of the same compound?
Answer: Its EC50 is 623 ± 212 nM.

Question: What about the β-catenin level (β-catenin) of the same compound?
Answer: The β-catenin level was “significantly enhanced”.

Question: What about the EC50 (β-catenin) of the same compound?
Answer: Its EC50 is 960 ± 140 nM.

Question: What about the BACE1 expression (BACE1; 0.8 μM and 1.6 μM) of the same compound?
Answer: The BACE1 expression was “significantly inhibited”.

Question: And the “stability in mouse hepatic microsomal system” value [1]?
Answer: The value was “good stability”.

Question: What does the source list for Nc1ccccc1NC(=O)c1ccc(C(=O)NCCN2CCC3(CCCCC3)CC2)cc1 [Compound 1020]?
Answer: EC50 (Wnt/β-catenin signaling): 860 ± 278 nM; β-catenin level (β-catenin): significantly enhanced; EC50 (β-catenin): 1020 ± 240 nM; BACE1 expression (BACE1; 0.8 μM and 1.6 μM): significantly inhibited; stability in mouse hepatic microsomal system [1]: unstable
